Earlier results in patent US7935500B2, “Identifying calcineurin activators for treatment of schizophrenia” (Massachusetts Institute of Technology, priority 2002, dated 2011).

Legend:
ryanodine receptor [1] = conditions: literature study [28]
ryanodine receptor [2] = conditions: literature study [28]; remark: listed apart in the source
IP3 receptors [3] = conditions: literature studies [29], [30]
IP3 receptors [4] = conditions: literature studies [29], [30]; remark: listed apart in the source

Row | effect on calcium influx (IP3 receptors [4]) | Compound | effect on binding of [3H]-ryanodine to membranes (ryanodine receptor [1]) | effect on probability of the channel being open (calcium influx) (ryanodine receptor [2]) | effect on binding of [3H]-IP3 to membranes (IP3 receptors [3])
1 |  | Cc1ccc(C(=O)Nc2ccc(S(=O)(=O)O)c3cc(S(=O)(=O)O)cc(S(=O)(=O)O)c23)cc1NC(=O)c1cccc(NC(=O)Nc2cccc(C(=O)Nc3cc(C(=O)Nc4ccc(S(=O)(=O)O)c5cc(S(=O)(=O)O)cc(S(=O)(=O)O)c45)ccc3C)c2)c1 [suramin] | increase binding of [3H]-ryanodine to membranes | increase the probability of the channel being open | 
2 | decrease calcium influx | CCN(CC)CCCC(C)Nc1ccnc2cc(Cl)ccc12 (stereo not shown) [chloroquine] |  |  | decrease binding of [3H]-IP3 to membranes
